“Also recorded” adds a separate entry of the source.
Key:
[1] = system: mouse bone marrow LSK cells; experiment: BrdU cell proliferation assay, sorted mouse bone marrow LSK cells; type: cell-based; settings: 10^−8M-10^−14M, 2 days culture
Method: Sorted mouse bone marrow LSK cells (10000 cells/well) were plated in a 96 well plate in Stemspan serum free expansion medium ([…] Technologies, Vancouver, Canada) with Pen/Strep, and the following hematopoietic factors: 100 ng/ml TPO, 50 ng/ml FLT3L, 50 ng/ml IL-3 and SCF 100 ng/ml (Peprotech, Rocky Hill, N.J.). Cells were treated with […] (Sigma-Aldrich, St. Louis, Mo.). When using human CD34^+ cells (5000 cells/well), human SCF, TPO, FLT3L and G-CSF (Peprotech, each at 50-100 ng/ml) were added to the Stemspan medium. Cells were treated with 10^−8M-10^−14M AVP. After 24 hours, BrdU at a 1:1000 concentration was added to the cultures and incorporation of BrdU was measured using the Cell Proliferation ELISA BrdU kit (Roche, Mannheim, Germany) after another 24 hours of incubation.

[2] = system: CD34^+ human hematopoietic progenitor cells; experiment: cAMP measurement in CD34+ human hematopoietic progenitor cells; type: cell-based; settings: AVP 10^−10 M vs non-stimulated cells
Excerpt: For cAMP measurements in CD34^+ human hematopoietic progenitor cells derived from two donors. The cAMP femto 2 kit (Cat#62AM5PEB, Cisbio) was used according to manufacturers instructions. The measurements were done on a Wallac Victor2 1420 multilabel counter (Perkin Elmer).

[3] = system: mice; experiment: Phenylhydrazine (hemolytic) anemia model; type: in vivo, mouse; settings: day 2 and day 4
Method: Phenylhydrazine, a known hemolytic agent, was injected intraperitoneally by administration of phenylhydrazine hydrochloride ip. 50 mg/kg body wt. (injection volume range of 100-150 μls) on day 0 and 1 and then mice were implanted with ALZET micro-osmotic pumps as described above to deliver AVP or vehicle. Blood samples were taken at 2, 4 and in some cases 6 and 14 days later to determine hematocrit and corrected reticulocyte values.

[4] = system: mice; experiment: Sublethal irradiation anemia model; type: in vivo, mouse
Method: Mice were irradiated with 4.5 Grays, and 24 hours later mice were implanted with ALZET micro-osmotic pumps as described above to deliver AVP or vehicle. Mice were treated with Trimethoprim and Sulfamethoxazole (Bactrim, Septra) for 7 days before irradiation and continued the treatment for 4 weeks after irradiation. Using a pediatric formulation, the stock concentration contains 40 mg/5 ml Trimethoprim and 200 mg/5 ml Sulfa, so that the treated drinking water will deliver 0.13 mg/ml trimethoprim and 0.67 mg/ml sulfa to the mice.

[5] = system: mice; experiment: Peripheral blood values following EPO vs. AVP injections in hemorrhage; type: in vivo, mouse
Method: AVP (100 μg/kg bodyweight) or EPOetin alfa (50 U/bodyweight, EPOgen) was administered intra-peritoneally to mice, immediately following hemorrhage. […] Hematocrit and reticulocyte counts were measured at different time points.

[6] = system: mice; experiment: EPO neutralization study in hemorrhage; type: in vivo, mouse
Method: To infuse vasopressin into the mice, AVP filled ALZET pumps were implanted subcutaneously on the dorsal aspect of the neck (5 ug/day, Alzet 1007D—7 days, 2002-14 days). Vasopressin was also given immediately and 6 hours later as a bolus injection (100 μg/kg). Alzet pumps were inserted subcutaneously. The dimensions and pump specification are: ALZET, (DURECT Corporation, Cupertino, Calif., USA) mini-osmotic pump models 1007D or 2002. The pumps deliver 0.5 μl/h of the desired substance for a for 2-week period. In some cases, erythropoietin antibody (100 μg/mice) was given before anesthesia with the corresponding control antibody. […] Following the initial hemorrhage blood samples were taken at 2, 4 and in some cases 6 days later to determine hematocrit and corrected reticulocyte values.
In some cases Erythropoietin antibody (100 μg/mice) was given before anesthesia with the corresponding control antibody.

[7] = system: Human BMSCs; experiment: BMSC signalling (ERK phosphorylation, cAMP, intracellular Ca2+); type: cell-based; settings: BMSC cultures
Method: Human BMSCs were loaded with Fura-2 and the cells were stimulated with AVP, or OXT.
For cAMP quantitation, 8×10^5 per well human BMSCs were plated in 6 well plates and left to attach overnight. Next day, the medium was changed and the cells were stimulated with AVP or deamino-Cys^1, D-Arg^8 AVP (DDAVP, a V2 receptor agonist) at 10^−6 M for 4 minutes. Cells were washed with PBS and lysed with R&D cell lysis buffer. Cyclic AMP was measured with the R&D cAMP Parameter assay kit (R&D Systems, Minneapolis, Minn.) according to manufacturer's instructions. Total protein concentrations of the cell lysates were measured using the Micro BCA Protein Assay kit (Pierce, Rockford, Ill.) and cAMP amount was normalized to 100 μg of total protein.

[8] = system: splenectomized mice; experiment: Hemorrhage in splenectomized mice; type: in vivo, mouse; settings: splenectomized mice vs controls
Method: Three to four month old mice were splenectomized and recovered for a month. AVP was administered at the time of bleeding and blood was sampled 2 and 4 days later for hematocrit and reticulocyte measurements.

In the case of `NC(=O)CC[C@@H]1NC(=O)[C@H](Cc2ccccc2)NC(=O)[C@H](Cc2ccc(O)cc2)NC(=O)[C@@H](N)CSSC[C@@H](C(=O)N2CCC[C@H]2C(=O)N[C@@H](CCCN=C(N)N)C(=O)NCC(N)=O)NC(=O)[C@H](CC(N)=O)NC1=O` [AVP, [Arg8]-Vasopressin], the “proliferation (BrdU incorporation) of mouse LSK cells” value [1] is reported as “induced proliferation; also recorded: stimulated LSK proliferation; also recorded: significantly increased the proliferation”, the “cAMP in human CD34+ progenitors” value [2] is reported as “moderate increase in cAMP” and the “outcome measures (hematocrit, corrected reticulocytes)” value [3] is reported as “significantly improved outcome measures on day 2 and to some extent on day 4”. For the same molecule, the “outcome measures (hematocrit, corrected reticulocytes)” value ([4]; sublethal irradiation, day 2 and day 4) was “significantly improved outcome measures on day 2 and to some extent on day 4”, the “hematocrit and reticulocyte numbers” value ([4]; sublethally irradiated mice) was “rapid elevations in hematocrit and reticulocyte numbers” and the “increase in hematocrit compared to PBS” value ([5]; AVP 100 μg/kg i.p. just after hemorrhage) was “only statistically significant at 12 and 24 hours; also recorded: significant increase in hematocrit 12 hours following the insult”. For the same molecule, the “differences in hematocrit between EPO and AVP” value ([5]; after hemorrhage) was “significant at 6, 12 and 24 hours and disappeared 5 days after hemorrhage”, the CR numbers ([6]; EPO neutralized group, day 6) was “began to increase CR numbers” and the “CR values over PBS” value ([6]; EPO neutralized, day 4) was “eliminated this difference”. For the same molecule, the hematocrit values ([6]; after EPO neutralization, hemorrhage) was “significantly increased hematocrit values”, the “CR values over PBS” value ([6]; control mice, day 4 and 6) was “increased the CR values over PBS” and the “corrected reticulocyte (CR) values, EPO neutralized or control groups, AVP or PBS” value ([6]; day 2) was “no significant difference”. The ERK phosphorylation [7] was “induced ERK phosphorylation”, the “cyclic AMP” value ([7]; 10^−6 M for 4 minutes) was “increase in cyclic AMP” and the AVP-induced hematocrit response [8] was “no different from controls”.

From US10172911B2, “Methods of modulating erythropoiesis with arginine vasopressin receptor 1B molecules” (The United States of America, as represented by the …, priority 2013, dated 2019)
